In the experiment the target is T1, CD73 (Homo sapiens, UniProt P21589).
T1 sequence (P21589 27-549): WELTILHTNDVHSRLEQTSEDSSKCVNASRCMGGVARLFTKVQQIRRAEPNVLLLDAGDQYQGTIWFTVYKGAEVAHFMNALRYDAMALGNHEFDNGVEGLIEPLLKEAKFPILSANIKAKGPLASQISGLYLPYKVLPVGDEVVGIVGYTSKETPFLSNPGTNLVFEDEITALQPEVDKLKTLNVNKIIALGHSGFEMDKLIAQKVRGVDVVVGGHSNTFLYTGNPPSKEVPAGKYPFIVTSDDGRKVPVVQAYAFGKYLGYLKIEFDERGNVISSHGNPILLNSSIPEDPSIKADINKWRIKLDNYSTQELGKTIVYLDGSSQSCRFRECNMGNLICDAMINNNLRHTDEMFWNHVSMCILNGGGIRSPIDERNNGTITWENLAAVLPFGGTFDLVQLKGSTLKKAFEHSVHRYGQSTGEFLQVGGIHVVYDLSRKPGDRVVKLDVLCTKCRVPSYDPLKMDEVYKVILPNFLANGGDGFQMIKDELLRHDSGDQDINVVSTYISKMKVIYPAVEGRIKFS
Nature of the experiment: Biochemical Assay: inhibition of CD73 activity (AMP hydrolysis, Malachite Green readout). Particulars: CD73 0.3208 nM, AMP 15 μM, 25 mM Tris-HCl pH 7.4, 10 min reaction at RT; read-out: CD73_Biochem. The procedure: Example A1: Biochemical Assay
Assay Reaction Conditions
• Assay Volume: 70 μl • Reaction Volume: 50 μl • CD73: 0.3208 nM • AMP: 15 μM • Assay Buffer: 2 5 mM Tris-HCL, pH 7.4, 0.01% Brij-35, 0.01% BSA, 5 mM MgCl2 Assay Procedure:
Made dose titration of testing compounds in assay buffer, 10 points ½ log titrations in duplicates starting at 100 μM.
Added 25 μl of CD73 to each well for a final concentration of 320 pM.
Incubated at RT for 15 min.
Added 25 μl of AMP to each well for a final concentration of 15 μM.
Incubated at RT for 10 min.
Added 10 μl of Malachite Green Reagent A, incubate at RT for 10 min.
Added 10 μl of Malachite Green Reagent B, incubate at RT for 45 min.
Read the Absorbance on Envision plate reader using excitation filter: Cy5 […].
The ability of the compounds disclosed herein to inhibit CD73 activity was quantified and the respective IC50 values were determined. Table 2 provides the biochemical IC50 values of compounds disclosed herein.

`COCCOCC(COCc1nnn[nH]1)(OC[C@H]1O[C@@H](n2ncc3c(NC4CCCC4)nc(Cl)nc32)[C@H](O)[C@@H]1O)P(=O)(O)O` (single isomer, unassigned) [Example 2]: the IC50 is at most 10 nM.

The values are drawn from patent US12577272B2, “CD73 inhibitors” (ORIC Pharmaceuticals, Inc., priority 2019, dated 2026).
